Experiments:
Format in all cases: cell-based
[1] = tested on: Ramos cells; assay: MTT cell viability assay, Ramos cells, 48 hours (Example 1)
[2] = tested on: Ramos (Burkitt's lymphoma) cell line; assay: Cell viability assay, fraction of cells affected (fa), Ramos
Description: (§1) FIGS. 5(a)-(d) are a series of bar graphs summarizing results for in vitro treatment of cancer cell lines with free bivalent or liposomal multivalent Ab constructs. […] Fraction of cells affected (fa) was calculated as follows: fa=1−fu, where fu was the fraction of remaining viable cells calculated as the ratio of the absorbance readings from the MTT assay for treated and untreated groups. Data represent mean ±S.E.M. from 3 independent experiments. * and ^# denote P<0.05 as compared to the free Ab treatment (ANOVA and Scheffe test for post-hoc comparisons).
(§2) Cells (3,500 cells/well for LCC6^HER2 and MCF7^HER2, and 20-50,000 cells/well for Ramos and 20,000 cells/well for Z-138) were seeded in 96-well plates. In the case of LCC6^HER2 and MCF7^HER2 cells, treatment was added after an overnight incubation to allow cell adherence to plates. In the case of Ramos and Z-138 cells, treatment was added on the same day after seeding. Cell viability was determined using 3-(4,5-dimethylthiazol-2-yl)-2,5-diphenyltetrazolium bromide (MTT) as previously described ^28 or Alamar Blue added in 10 μL/well with an 18-h incubation before reading fluorescence in a Fluorstar (v 1.2) plate reader (BMG Labtechnologies, Offenburg, Germany).
(§3) For rituximab, testing was conducted in a Burkitt's lymphoma cell line, Ramos (FIG. 5c), and a mantle cell lymphoma cell line, Z-138 (FIG. 5d).

[3] = tested on: Z-138 cells; assay: Cell cycle analysis and DAPI staining, Z-138; details: 15 μg/mL, 3 days
Description: (§4) FIGS. 6(a)-6(b) are bar graphs and Western blot analyses showing modulation of cancer cell survival pathways by multivalent liposomal Ab constructs. […] The concentration of trastuzumab was 200 μg/mL. (b) Representative cell cycle analysis, DAPI staining and Western blot analyses of Z-138 cells after exposure to free or liposomal rituximab for 3 days. The concentration of rituximab was 15 μg/mL. […] For DAPI staining, yellow arrows indicate apoptotic morphology of DNA condensation or fragmentation associated with Z-138 cells exposed to various treatments. The scale bar is equivalent to 50 μm, and all images are shown at the same magnification.
Cells were harvested after treatment and fixed in cold 70% ethanol adjusted to 1×10^6 cells/mL and 2×10^6 cells/mL for cell cycle analyses and DAPI staining, respectively. In the case of cell cycle analyses, cells were stained in propidium iodide (PI) buffer [50 μg/mL PI, 1 mg/mL RNase A (Sigma), and 0.1% Triton X-100 in PBS] at 37° C. for 15 min as previously described ^28. Cells were then chilled on ice for 1 h and analyzed on a FACSCalibur flow cytometer (Becton Dickinson, San Jose, Calif.) with 20,000 events collected for each sample. In the case of DAPI staining, cells were incubated in DAPI staining solution (0.1 μg/mL DAPI, 1 mg/mL RNase A and 0.1% Triton X-100 in PBS) for 15 min, followed by chilling on ice for 30 min. Cells were cytospun onto a glass slide, and viewed with a Leica DMLB fluorescence microscope. Images were captured with a Retiga 1300i digital camera and analyzed by the computer software OpenLab 3.5.1 (Improvision).

[4] = tested on: phosphorylated p65NF-κB, Bcl-xL, Bcl-2, Bax, p-Akt; assay: Western blot analyses of cell survival molecules, Z-138; details: 15 μg/mL, 3 days
Description: as §4
The following antibodies were used in this study: anti-p-HER2-Tyr-1248/Tyr-1173; anti-HER2; anti-p-Akt-Ser-473 and anti-Akt (all were rabbit polyclonal, New England Biolabs) and anti-human β-actin (mouse monoclonal, Sigma). The secondary antibody was horseradish peroxidase-conjugated anti-mouse or anti-rabbit IgG (Promega, Madison, Wis.). Proteins were detected by enhanced chemiluminescence (Amersham Pharmacia Biotech, Buckinghamshire, England), and visualized after exposure to Kodak autoradiography film. Equivalent amounts of protein (30 μg/lane determined by Bradford assay) were resolved by 12% SDS-polyacrylamide pre-made gels (Bio-Rad).

[5] = tested on: Z-138 (mantle cell lymphoma) cell line; assay: Cell viability assay, fraction of cells affected (fa), Z-138
Description: as §1, §2, §3

[6] = tested on: caspase 3/7; assay: Caspase 3/7 activity, Z-138; details: Z-138 cells, data not shown
[7] = 3 days, 10% serum, range of Ab concentrations tested

Substance | potency / cytotoxic activity on cell viability (MTT assay), in words [1] | apoptosis: percentage of cells in sub-G1/G0 phase, morphology (DAPI) [3] | expression levels of phosphorylated p65NF-κB and downstream Bcl-xL [4] | also measured
Lipo-RTX 48: Rituximab bound to liposomes at antibody-to-lipid ratio of 48 μg antibody/μmol lipid | superior potency to free Rituximab |  |  | 
Lipo-RTX 59: Rituximab bound to liposomes at antibody-to-lipid ratio of 59 μg antibody/μmol lipid | superior potency to free Rituximab |  |  | 
cross-linked rituximab: Free rituximab cross-linked by an anti-human IgG F(ab)′ (goat F(ab′)2 anti-human IgG, 50 μg/mL), included as a control |  | increases | reduced | activity (fa) compared to liposomal rituximab, in words ([2]; Ab concentrations above 10 μg/mL, P<0.05): more effective than liposomal rituximab; expression level of p-Akt [4]: capable of reducing
free rituximab: a therapeutic antibody targeting CD20; anti CD20 monoclonal antibody | minimal or no cytotoxic activity | not different from untreated cells | not different from untreated cells | 
liposomal rituximab: rituximab conjugated to DSPC/CHOL/DSPE-PEG2000/DSPE-PEG2000-MAL liposomes, Ab-to-lipid ratio 50-70 μg/μmol |  | increases | reduced | activity (fa) compared to free rituximab, in words [2, 7]: significantly more effective than the free, bivalent form; activity (fa) compared to free rituximab, in words [5, 7]: significantly more effective than the free, bivalent form; activity (fa) compared to cross-linked rituximab, in words ([5]; P>0.05): not significantly different from that of cross-linked rituximab; increase in caspase 3/7 activity [6]: not

Source: US20080286350A1, “Formulation of Multivalent Antibody Constructs and Use of Same for Cancer Therapy” (BC CANCER AGENCY, priority 2004, published 2008)
